Experimental data: PMC8596301 (Frontiers in Pharmacology, 2021)
Read-outs that look alike come from different tables or passages of the source.

Tests used:
[1] = test system: wild-type C57Bl/6 mice; conditions: cited from earlier work
[2] = target: κOR (Homo sapiens, UniProt P41145); test: biochemical; assay type: binding
[3] = target: μOR (Homo sapiens, UniProt P35372); test: biochemical; assay type: binding
[4] = target: T1, HA-mouse µOR (Mus musculus, UniProt P42866); test: cell-based; conditions: for Emax: HEK293, read-out: cAMP α (% inhibition at maximal efficacy)
T1 construct: expressed in transfected cells; host or cells: HEK cells (HEK-293), transient, co-transfected with pGloSensor22F
T1 sequence (P42866 whole entry): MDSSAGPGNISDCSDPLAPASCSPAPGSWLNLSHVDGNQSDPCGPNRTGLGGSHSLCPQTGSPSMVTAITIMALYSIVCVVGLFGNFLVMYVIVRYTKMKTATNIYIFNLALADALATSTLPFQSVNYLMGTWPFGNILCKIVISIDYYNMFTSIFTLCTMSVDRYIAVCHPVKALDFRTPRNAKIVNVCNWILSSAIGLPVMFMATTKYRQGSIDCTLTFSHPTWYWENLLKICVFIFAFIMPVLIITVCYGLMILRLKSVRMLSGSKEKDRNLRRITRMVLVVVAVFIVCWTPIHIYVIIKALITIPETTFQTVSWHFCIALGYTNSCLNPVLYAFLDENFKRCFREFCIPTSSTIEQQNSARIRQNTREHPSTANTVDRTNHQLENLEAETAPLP

[5] = target: T2, δOR (Homo sapiens, UniProt P41143); test: biochemical; assay type: binding
T2 sequence (P41143 whole entry): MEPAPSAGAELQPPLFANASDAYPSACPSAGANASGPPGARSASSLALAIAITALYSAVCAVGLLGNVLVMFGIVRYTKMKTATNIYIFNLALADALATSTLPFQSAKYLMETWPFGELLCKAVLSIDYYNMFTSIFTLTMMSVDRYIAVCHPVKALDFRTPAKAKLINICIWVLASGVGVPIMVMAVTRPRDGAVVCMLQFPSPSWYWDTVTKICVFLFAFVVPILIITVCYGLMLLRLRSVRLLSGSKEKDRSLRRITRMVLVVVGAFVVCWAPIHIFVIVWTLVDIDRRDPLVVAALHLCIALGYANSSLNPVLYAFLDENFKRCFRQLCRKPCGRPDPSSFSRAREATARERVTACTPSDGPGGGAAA

[6] = test system: wild-type and δOR KO male mice; test: Accelerating rotarod test; assay type: in vivo, mouse
Description: Mice were trained to walk on a rotarod apparatus (IITC, United States) with 1.25” diameter drums 2 days prior to drug testing. The rotarod started at 3 rpm and was increased to 30 rpm over 300 s. A trial for a mouse ended when it fell and tripped the sensor, when it rode the rotarod for two consecutive revolutions, or after 300 s (the maximum trial time)([White et al., 2015]). Mice received at least 3 min of rest between trials. On test day, baseline performance was assessed as the average latency to fall in three trials per mouse. […] Each mouse’s performance was normalized to its own baseline and reported as a percentage. A summary of all statistical analyses for the rotarod data can be found in Supplemental Table S2. In brief, data for each tested timepoint were calculated as a percentage of the baseline, and thus statistical significance was calculated in a two-tailed, one sample t test vs. a hypothetical mean of 100 (baseline was 100%). Rotarod results between WT and δOR KO genotypes were compared with a mixed-effects model with fixed effects for timepoint, genotype, and timepoint × genotype.

[7] = target: T3, FLAG-mouse κOR (Mus musculus, UniProt P33534); test: cell-based
T3 construct: expressed in transfected cells; host or cells: HEK cells (HEK-293), transient, co-transfected with pGloSensor22F
T3 sequence (P33534 whole entry): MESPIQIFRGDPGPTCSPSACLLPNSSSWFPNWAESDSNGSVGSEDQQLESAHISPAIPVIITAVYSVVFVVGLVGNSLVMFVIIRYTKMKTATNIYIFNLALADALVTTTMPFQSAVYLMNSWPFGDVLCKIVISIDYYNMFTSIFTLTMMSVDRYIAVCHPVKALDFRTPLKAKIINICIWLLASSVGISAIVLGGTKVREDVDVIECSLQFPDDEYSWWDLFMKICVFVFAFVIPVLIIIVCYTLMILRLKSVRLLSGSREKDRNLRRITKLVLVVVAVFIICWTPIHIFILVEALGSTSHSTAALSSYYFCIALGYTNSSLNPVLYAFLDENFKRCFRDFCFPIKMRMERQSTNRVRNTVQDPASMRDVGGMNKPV

[8] = test system: wild-type C57Bl/6 mice; test: Two-bottle choice alcohol paradigm (drinking in the dark, 10% ethanol vs. water); assay type: in vivo, mouse; conditions: WT male mice
Description: (§1) Mice were subject to drinking in the dark (DID), limited access (4 h per day), two-bottle choice (10% ethanol vs. water) paradigm in which they were trained to consume alcohol voluntarily as previously described ([Rhodes et al., 2005]; [van Rijn and Whistler, 2009]). Mice reached stable alcohol consumption within 3 weeks of training, and after the third week, drug injections were administered prior to the daily drinking session on Friday. Drug’s effect on alcohol consumption was measured as the change in Friday’s alcohol intake minus the average alcohol intake from the preceding Tuesday–Thursday of that week (g∙kg^−1). A summary of all statistical analyses for the drinking data can be found in Supplemental Tables S6–S9. In brief, results from two-bottle choice alcohol consumption paradigms were assessed for statistical significance using RM two-way ANOVA for main effects of drug dose, treatment day, and drug dose × treatment day; Sidak’s multiple comparisons (MC) between alcohol consumption baseline (Tuesday–Thursday average) vs. treatment day consumption (Friday) were then used as the post hoc test for each drug dose tested. The same RM two-way ANOVA and Sidak’s MC post hoc analyses were used for water consumption and ethanol preference data. […] Sex differences between baseline data were evaluated using RM two-way ANOVA for main effects of sex, treatment baseline, and sex × treatment baseline; Sidak’s multiple comparisons (MC) between male and female mice were then used as the post hoc test for each treatment week tested.

[9] = test system: δOR KO mice; test: as above; assay type: in vivo, mouse; conditions: speciociliatine 30 mg∙kg^−1 i.p.; δOR KO male mice
Description: as §1

[10] = target: T4, FLAG-mouse δOR (Mus musculus, UniProt P32300); test: cell-based; conditions: for Emax: HEK293, read-out: cAMP α (% inhibition at maximal efficacy)
T4 construct: expressed in transfected cells; host or cells: HEK cells (HEK-293), transient, co-transfected with pGloSensor22F
T4 sequence (P32300 whole entry): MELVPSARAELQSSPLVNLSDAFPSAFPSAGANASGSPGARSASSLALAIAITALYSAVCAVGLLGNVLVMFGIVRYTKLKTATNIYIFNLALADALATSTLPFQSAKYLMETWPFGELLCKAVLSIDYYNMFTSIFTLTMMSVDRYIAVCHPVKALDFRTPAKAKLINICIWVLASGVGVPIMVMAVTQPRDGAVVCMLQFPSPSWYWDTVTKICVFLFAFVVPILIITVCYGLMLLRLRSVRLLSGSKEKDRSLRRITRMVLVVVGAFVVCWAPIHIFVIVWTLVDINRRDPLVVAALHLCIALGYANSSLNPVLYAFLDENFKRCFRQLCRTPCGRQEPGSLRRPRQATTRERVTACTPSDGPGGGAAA

[11] = test system: C57Bl/6 male mice; test: Locomotor evaluation (ambulation); conditions: 7-hydroxymitragynine 3 mg∙kg^−1 i.p.; naloxone 1 mg∙kg^−1 s.c. 10 min prior; WT male mice; 90 min
[12] = target: T2, δOR; parameters: expressed in transfected cells; method as in Gutridge et al., 2020; conditions: ref Gutridge et al., 2020; cited from earlier work
[13] = test system: C57Bl/6 male mice; conditions: 3 mg∙kg^−1; ref Gutridge et al., 2020; cited from earlier work
[14] = target: T1, HA-mouse µOR; conditions: cited from earlier work
[15] = target: T4, FLAG-mouse δOR; parameters: method as in Gutridge et al., 2020; conditions: cited from earlier work
[16] = target: T3, FLAG-mouse κOR; parameters: method as in Gutridge et al., 2020; conditions: cited from earlier work
[17] = 30 mg∙kg^−1 i.p., wild-type mice
[18] = speciociliatine 3, 10 and 30 mg∙kg^−1 i.p.
[19] = 7-hydroxypaynantheine 30 mg∙kg^−1 s.c.
[20] = read-out: cAMP IC50, ref Gutridge et al., 2020

Chain of κOR (P41145 whole entry): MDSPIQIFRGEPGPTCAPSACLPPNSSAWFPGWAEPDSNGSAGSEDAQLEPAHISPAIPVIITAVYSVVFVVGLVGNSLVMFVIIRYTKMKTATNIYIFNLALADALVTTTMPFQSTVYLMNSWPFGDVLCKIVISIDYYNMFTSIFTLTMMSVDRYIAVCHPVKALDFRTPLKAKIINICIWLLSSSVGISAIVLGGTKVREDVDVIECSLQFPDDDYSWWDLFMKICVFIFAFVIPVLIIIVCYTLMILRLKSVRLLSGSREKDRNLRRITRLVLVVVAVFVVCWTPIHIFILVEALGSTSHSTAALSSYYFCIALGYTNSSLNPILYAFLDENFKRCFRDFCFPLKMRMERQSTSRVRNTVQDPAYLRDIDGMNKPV
Chain of μOR (P35372 whole entry): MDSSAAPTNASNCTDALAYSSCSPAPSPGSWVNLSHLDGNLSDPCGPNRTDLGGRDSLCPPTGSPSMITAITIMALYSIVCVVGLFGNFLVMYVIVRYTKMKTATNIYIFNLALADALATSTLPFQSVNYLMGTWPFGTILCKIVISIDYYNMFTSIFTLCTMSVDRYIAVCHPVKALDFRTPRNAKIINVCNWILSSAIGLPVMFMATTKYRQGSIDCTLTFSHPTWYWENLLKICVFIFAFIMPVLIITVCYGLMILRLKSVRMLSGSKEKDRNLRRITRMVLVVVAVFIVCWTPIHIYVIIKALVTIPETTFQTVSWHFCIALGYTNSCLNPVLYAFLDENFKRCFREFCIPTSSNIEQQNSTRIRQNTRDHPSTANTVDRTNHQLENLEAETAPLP

**Q.** For `Oc1ccc2c3c1O[C@H]1c4oc5ccccc5c4C[C@@]4(O)[C@@H](C2)N(CC2CC2)CC[C@]314` [naltriben], which Alcohol consumption ([1]; 6 and 10 mg∙kg^−1, ref van Rijn and Whistler, 2009) is on record?
**A.** dose-dependently decreases alcohol consumption

**Q.** For `COc1ccsc1CNCC[C@@]1(c2ccccn2)CCOC2(CCCC2)C1` [Oliceridine/TRV130, Oliceridine], which Alcohol consumption ([1]; selective activation of μOR G-protein signaling, ref Gutridge et al., 2020) is on record?
**A.** did not decrease alcohol consumption

**Q.** For `C=CC1CN2CCC3(Nc4cccc(OC)c4C3=O)C2CC1C(=COC)C(=O)OC` (centres unmarked) [PAYN PI, Paynantheine Pseudoindoxyl], which Ki ([2]; Binding Ki (µM)) is on record?
**A.** 1.31 µM

**Q.** What about the Ki [3] of the same compound?
**A.** 680 nM

**Q.** What about the IC50 [4] of the same compound?
**A.** 4820 nM

**Q.** What about the Emax [4] of the same compound?
**A.** 60 ± 6%

**Q.** And the Ki [5]?
**A.** 920 nM

**Q.** Which results are given for `CC[C@@H]1CN2CCc3c([nH]c4cccc(OC)c34)[C@H]2C[C@@H]1/C(=C\OC)C(=O)OC` [SPECIO, speciociliatine]?
**A.** Ki ([2]; Binding Ki (µM)): 0.59 µM; Seizure level observed in the rotarod assay ([6]; 30 mg/kg i.p., one δOR KO mouse): 5–6; Mortality in the rotarod assay ([6]; 30 mg/kg i.p., δOR KO mice (n = 8)): one δOR KO mouse died; Rotarod performance (latency to fall, % of baseline) [6, 17]: significantly reduced the ability; Time of full recovery on rotarod [6, 17]: 120 min; Rotarod performance ([6]; 30 mg∙kg^−1 i.p., δOR KO mice): same effect was observed; Ki [5]: 4340 nM; Emax ([7]; HEK293, read-out: cAMP α (% inhibition at maximal efficacy)): 60 ± 7%; Average decrease in ethanol consumption ([8]; 30 mg∙kg^−1 i.p.): 2.5 ± 0.3 g/kg; Reduction in ethanol consumption ([8]; 30 mg∙kg^−1 i.p.): 90 ± 3%; Ethanol preference ([8]; speciociliatine 30 mg∙kg^−1 i.p.): significantly decreased; Ethanol consumption [8, 18]: significantly decreased ethanol consumption but only at the 30 mg∙kg^−1 dose; Water consumption [8, 18]: did not change water consumption; Ethanol preference [9]: significantly decreased; Water consumption [9]: did not change water consumption

**Q.** Which Ki ([2]; Binding Ki (µM)) does the source give for `CC[C@H]1CN2CCc3c([nH]c4cccc(OC)c34)[C@@H]2C[C@@H]1/C(=C\OC)C(=O)OC` [SPG, speciogynine] here?
**A.** 3 µM

**Q.** And the Ki ([2]; Binding pKi)?
**A.** 3.98 µM

**Q.** With `Oc1ccc2c3c1O[C@H]1c4[nH]c5ccccc5c4C[C@@]4(O)[C@@H](C2)N(CC2CC2)CC[C@]314` [naltrindole] as the compound, how does the Alcohol intake ([1]; 10 mg∙kg^−1, ref van Rijn and Whistler, 2009) read?
**A.** does not decrease alcohol intake

**Q.** For `CC[C@H]1CN2CC[C@]3(Nc4cccc(OC)c4C3=O)[C@@H]2C[C@@H]1/C(=C\OC)C(=O)OC` [SPG PI, Speciogynine Pseudoindoxyl], which Ki [2] is on record?
**A.** 0.75 µM

**Q.** And the Ki [3]?
**A.** 77 nM

**Q.** What about the IC50 [4] of the same compound?
**A.** 230 nM

**Q.** And the Emax [4]?
**A.** 58 ± 4%

**Q.** And the IC50 [10]?
**A.** 8530 nM

**Q.** And the Emax [10]?
**A.** 80 ± 20%

**Q.** And the Ki [5]?
**A.** 940 nM

**Q.** What about the IC50 [7] of the same compound?
**A.** 20600 nM

**Q.** Which Ki ([2]; Binding Ki (µM)) does the source give for `C=C[C@H]1CN2CC[C@@]3(O)C(=Nc4cccc(OC)c43)[C@@H]2C[C@@H]1/C(=C\OC)C(=O)OC` [7OH PAYN, 7-Hydroxypaynantheine] here?
**A.** 7.46 µM

**Q.** And the Ki [3]?
**A.** 6150 nM

**Q.** What about the IC50 [4] of the same compound?
**A.** 21800 nM

**Q.** What about the Emax [4] of the same compound?
**A.** 80 ± 40%

**Q.** What about the IC50 [10] of the same compound?
**A.** 5740 nM

**Q.** And the Emax [10]?
**A.** 70 ± 20%

**Q.** What about the Ki [5] of the same compound?
**A.** 12700 nM

**Q.** What about the “Decrease in ethanol consumption” value ([8]; 30 mg∙kg^−1 s.c.) of the same compound?
**A.** 1.1 ± 0.3 g/kg

**Q.** And the “Reduction in ethanol consumption” value ([8]; 30 mg∙kg^−1 s.c.)?
**A.** 40 ± 11%

**Q.** What about the Ethanol preference [8, 19] of the same compound?
**A.** corresponding decrease in ethanol preference

**Q.** And the Water consumption [8, 19]?
**A.** concomitant increase in water consumption

**Q.** And the Alcohol intake ([8]; 7-hydroxypaynantheine 10 and 30 mg∙kg^−1 s.c.)?
**A.** significantly reduce alcohol intake

**Q.** With `CC[C@@H]1CN2CC[C@@]3(O)C(=Nc4cccc(OC)c43)[C@@H]2C[C@@H]1/C(=C\OC)C(=O)OC` [7-OH MITRA, 7-hydroxymitragynine, reference compound] as the compound, how does the Ki ([2]; Binding Ki (µM)) read?
**A.** 0.14 µM

**Q.** And the “Minimal effective dose to reduce alcohol intake” value ([1]; ref Gutridge et al., 2020)?
**A.** 3 mg/kg

**Q.** And the “Hyperlocomotion induced by 7-hydroxymitragynine after naloxone pretreatment” value [11]?
**A.** blocked

**Q.** What about the “β-arrestin 2 α” value [12] of the same compound?
**A.** 14 ± 1

**Q.** What about the Ki [5] of the same compound?
**A.** 190 nM

**Q.** What about the “Hyperlocomotion and CPP” value [13] of the same compound?
**A.** caused both hyperlocomotion and CPP

**Q.** And the “cAMP α” value [14]?
**A.** 84 ± 3

**Q.** What about the “cAMP α” value ([15]; normalized to Leu-enkephalin, ref Gutridge et al., 2020) of the same compound?
**A.** 80 ± 8

**Q.** What about the IC50 [15, 20] of the same compound?
**A.** 960 nM

**Q.** And the “cAMP α” value ([16]; normalized to U50,488, ref Gutridge et al., 2020)?
**A.** 77 ± 5

**Q.** And the IC50 [16, 20]?
**A.** 1040 nM
